From patent publication US20260097111A1, “ETHER LIPIDS FOR HYPERACTIVATION OF MAMMALIAN DENDRITIC CELLS” (priority 2022, published 2026)
“Also recorded” adds a separate entry of the source.

Test system: human monocyte-derived dendritic cells (moDCs)
Assay: IL-1β secretion by human moDCs treated with lipid and R848
Format: cell-based
Conditions: for hyperactivation of moDC (IL-1β secretion with maintained viability): 20.6 uM lipid with R848; for hyperactivation of human dendritic cells: 41.25 μM lipid with R848 (Compound 1 also 20.6 μM)
Description: (§1) Human monocytes were isolated from Leukopaks purchased from Miltenyi using the StraightFrom Leukopak CD14 microbead kit (Miltenyi). Isolations were completed following manufacturer's instructions. Monocytes were then aliquoted and frozen in fetal bovine serum containing 10% dimethyl sulfoxide. For studies with monocyte-derived dendritic cell (moDC) cultures, monocytes were thawed and cultured in RPMI medium containing 10% FBS, 50 units/mL penicillin, […] streptomycin, 2 mM L-glutamine, 1 mM sodium pyruvate, […] beta-mercaptoethanol, 10 mM HEPES, and Gibco MEM non-essential amino acids (R10 media). To differentiate monocytes into moDCs, recombinant human GM-CSF (50 ng/mL) and IL-4 (25 ng/mL) were added to R10 media. Cells were cultured for 6 days with GM-CSF and IL-4, with an additional cell feeding with R10 containing GM-CSF and IL-4 on day 3.
Six days after differentiation, moDC were collected and counted. Cells were plated into 96-well flat-bottom plates at 1×10^5 cells/well. Cells were treated with or without 1 μg/mL R848 (final) and with or without a hyperactivating lipid (or vehicle control). In some experiments, MCC950, an inhibitor of the NLRP3 inflammasome, was added at a final concentration of 10 uM. In some experiments, nigericin, which causes NLRP3 inflammasome activation and subsequent pyroptosis, was used as a positive control at 20 uM. Cells and stimuli totaled a final volume of […].
Lipid stocks were then further diluted in PBS to treat cells.
After an overnight incubation, cells and culture supernatant were used for downstream readouts. One hundred and fifty microliters of cell supernatant were collected. Viability was measured using the CellTiter-Glo assay (Promega) which measures ATP content from cells. Fifty microliters of CellTiter-Glo reagent were added to 50 μL of cells. Luminescence was quantified on a SpectraMax m5e plate reader using an integration time of 500 milliseconds. Viability data were set relative to control conditions where cells were treated with only R848. To measure IL-1β secretion, the human IL-1β Lumit kit (Promega) was used to assay cell culture supernatant. Culture supernatant samples were incubated with enzyme-linked antibodies in a 384-well plate for 1 hour before addition of luminescent substrate. Samples were measured for luminescence with an integration time of 500 milliseconds. IL-1β concentrations of samples was determined by interpolation from a standard curve using 4-parameter logistic regression analysis. Studies were performed on three different human donor samples, and each biological condition was tested in triplicate. Graphed data represent means from each donor.
as §1, with “Human moDC Production. Human” for “Human”, “(Miltenyi) according to the” for “(Miltenyi). Isolations were completed following”, “To differentiate” for “For studies with”, “pyruvate, and” for “pyruvate,”, “beta-mercaptoethanol” for “beta-mercaptoethanol, 10 mM HEPES, and Gibco MEM non-essential amino acids”
Hyperactivating Lipid Formulation—Compound 10. Lipid stocks were formulated at 200 μg/mL lipid in 5% Kolliphor P407 (KP407) in PBS.

[1] = human moDCs, 20.6 uM lipid with R848 and 10 uM MCC950, FIG. 14
[2] = human moDCs, 20.6 uM lipid with R848 vs vehicle, FIG. 14
[3] = human moDCs, 41.25 μM lipid with R848, FIG. 17

Compound | hyperactivation of human dendritic cells | IL-1β secretion [3] | further results
CCCCCCCCCCCCCCCCCCCCCCOC[C@@H](O)CO [Compound 9, (S)-3-(docosyloxy)propane-1,2-diol] | – | – | IL-1β secretion (human moDCs, 41.25 μM lipid with R848 vs vehicle control, FIG. 8): produced significantly more IL-1β; IL-1β secretion (human moDCs, 41.3 uM lipid with R848, FIG. 11): robustly induced IL-113 secretion; IL-1β secretion (human moDCs, 24 hours, lipid in 4% KP407 with R848, FIG. 2B): produced significantly more IL-1β; IL-1β secretion, dependence on the NLRP3 inflammasome (human moDCs, R848 + lipid with or without MCC950, one day, FIG. 3B): depend on the NLRP3 inflammasome for IL-1β secretion
CCCCCCCCCCCCCCCCCCOC[C@H](CO)OC(=O)NC [Compound 11, (S)-1-hydroxy-3-(octadecyloxy)propan-2-yl methylcarbamate] | hyperactivating lipids; also recorded: hyperactivated dendritic cells | significantly increased IL-1β secretion | hyperactivation of moDC (IL-1β secretion with maintained viability): hyperactivating lipids; IL-1β secretion [1]: inhibited; IL-1β secretion [2]: significantly more IL-1β was detected
CCCCCCCCCCCCCCCCCCOC[C@@H](O)CO [Compound 12, (S)-3-(octadecyloxy)propane-1,2-diol] | hyperactivating lipids; also recorded: hyperactivated dendritic cells | significantly increased IL-1β secretion | hyperactivation of moDC (IL-1β secretion with maintained viability): hyperactivating lipids; IL-1β secretion [1]: inhibited; IL-1β secretion [2]: significantly more IL-1β was detected
CCCCCCCCCCCCCCCCCCOC[C@H](COP(=O)(O)O)OC(=O)NC [Compound 13, (R)-1-(octadecyloxy)-3-(phosphonooxy)propan-2-yl methylcarbamate] | hyperactivating lipids; also recorded: hyperactivated dendritic cells | significantly increased IL-1β secretion | –
CCCCCCCCCCCCCCCCCCCCCCOC[C@H](CO)OC(=O)N(C)C [Compound 14, (S)-1-(docosyloxy)-3-hydroxypropan-2-yl dimethylcarbamate] | did not | induced minimal IL-1β secretion | –
(R)-2-((dimethylcarbamoyl)oxy)-3-ethoxypropyl (2-(trimethylammonio)ethyl) phosphate-icosane (1/1) [Compound 16] | hyperactivating lipids; also recorded: hyperactivated dendritic cells | significantly increased IL-1β secretion | –
(R)-3-(docosyloxy)-2-((methylcarbamoyl)oxy) propyl (2-(trimethylammonio) ethyl) phosphate [Compound 4] | hyperactivating lipids; also recorded: hyperactivated dendritic cells | significantly increased IL-1β secretion | –
